Test results published in patent US20240277658A1, “NLRP3 ACTIVATORS FOR USE IN THE TREATMENT OF INFECTIOUS DISEASES OR CANCER BY ACTIVATING NLRP3 INFLAMMASOME” (ALBERT-LUDWIGS-UNIVERSITÄT FREIBURG, priority 2020, published 2024).
“And” between values parts separate entries of the source, which are not always exact repeats. Equal entries are not always repeated.

Target: T1, NLRP3 inflammasome (Mus musculus, UniProt Q8R4B8)
T1 construct: endogenous in cells; host or cells: primary mouse bone marrow-derived dendritic cells (BMDCs), LPS-primed
T1 sequence (Q8R4B8 whole entry): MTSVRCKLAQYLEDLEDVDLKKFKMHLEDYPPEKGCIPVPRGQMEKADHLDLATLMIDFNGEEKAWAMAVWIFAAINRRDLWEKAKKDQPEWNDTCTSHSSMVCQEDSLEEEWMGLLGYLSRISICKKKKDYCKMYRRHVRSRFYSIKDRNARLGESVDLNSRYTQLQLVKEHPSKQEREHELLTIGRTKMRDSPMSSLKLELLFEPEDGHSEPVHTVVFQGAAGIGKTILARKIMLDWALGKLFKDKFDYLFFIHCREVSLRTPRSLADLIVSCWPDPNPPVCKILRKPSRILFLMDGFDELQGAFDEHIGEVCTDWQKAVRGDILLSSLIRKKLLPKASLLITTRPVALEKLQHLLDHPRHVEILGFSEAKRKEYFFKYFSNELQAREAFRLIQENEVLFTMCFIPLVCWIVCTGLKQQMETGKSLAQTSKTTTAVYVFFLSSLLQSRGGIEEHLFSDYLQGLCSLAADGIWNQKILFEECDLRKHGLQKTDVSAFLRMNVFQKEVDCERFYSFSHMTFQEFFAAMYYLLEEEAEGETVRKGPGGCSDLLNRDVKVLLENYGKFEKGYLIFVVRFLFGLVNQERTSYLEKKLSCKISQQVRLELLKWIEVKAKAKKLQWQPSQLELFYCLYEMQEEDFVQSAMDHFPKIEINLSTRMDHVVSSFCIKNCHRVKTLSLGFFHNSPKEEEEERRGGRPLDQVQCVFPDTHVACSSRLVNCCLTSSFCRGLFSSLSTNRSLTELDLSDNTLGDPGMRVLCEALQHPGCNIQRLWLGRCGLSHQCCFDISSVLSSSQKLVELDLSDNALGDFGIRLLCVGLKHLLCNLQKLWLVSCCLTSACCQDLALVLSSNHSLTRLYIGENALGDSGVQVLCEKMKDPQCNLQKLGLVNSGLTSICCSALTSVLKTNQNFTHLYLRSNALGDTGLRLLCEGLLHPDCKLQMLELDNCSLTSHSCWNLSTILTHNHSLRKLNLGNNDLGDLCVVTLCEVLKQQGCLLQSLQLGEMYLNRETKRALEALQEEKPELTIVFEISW
Assay: IL-1β release from LPS-primed BMDCs (ELISA) as readout of NLRP3 inflammasome activation
Format: cell-based
Procedure, shortened: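 NLRP3 inflammasome activation was read out as IL-1β released into the supernatant, measured by ELISA. Murine BMDCs were primed with LPS (50 ng ml^−1, 3 hours), then incubated with compounds for 3 hours, with each condition run in three technical replicates. Nigericin at 5 μM acted as the positive control activator, and IL-1β release was also expressed as a percentage of that control.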

Average IL-1β (10 μM): 10.000 ng/mL | IL-1β (10 μM, individual replicate values): 10.000 ng/mL | Average IL-1β (18.75 μM): 6.322 ng/mL | Average IL-1β (25 μM, EN11 series table): 1.474 ng/mL | time after which inflammasome activation is almost maximum (BMDCs from wild-type mice without inhibitor): 30 min | EC50 for induction of IL-1β, times lower than for imiquimod and CL097 (BMDCs, FIG. 4D): 10 times | Average (% positive control) (IL-1β release, compound 50 μM, positive control nigericin 5 μM): 128.957 % positive control | Average (% positive control) (IL-1β, 10 μM, positive control EN22 10 μM): 100.000 % positive control | Average (% positive control) (IL-1β, 18.75 μM, positive control EN22 18.75 μM): 100.000 % positive control | Average (% positive control) (IL-1β, 25 μM, positive control EN22 25 μM): 100.000 % positive control | Average (% positive control) (IL-1β, concentration not given, positive control EN22): 100.000 % positive control | Average IL-1β (compound 50 μM, LPS-primed BMDCs): 9.244 ng/mL | Average IL-1β (concentration not given, JB series table): 1.957 ng/mL | Average IL-1β (section 1.2, 25 μM): 5.026 ng/mL | Average (% positive control) (section 1.2, IL-1β release, 25 μM, positive control EN22 25 μM): 100.000 % positive control
SMILES: O=C(Nc1ccccc1)Nc1ccc2ncccc2c1 [EN22, 1-phenyl-3-(quinolin-6-yl)urea]
IL-1β (18.75 μM, individual replicate values): 7.071 ng/mL and 5.864 ng/mL and 6.030 ng/mL | IL-1β (25 μM, individual replicate values, EN11 series table): 1.387 ng/mL and 1.391 ng/mL and 1.646 ng/mL | IL-1β (concentration not given, individual replicate values, JB series table): 1.632 ng/mL and 2.095 ng/mL and 2.146 ng/mL | IL-1β (section 1.2, single replicates, 25 μM): 4.821 ng/mL and 5.196 ng/mL and 5.062 ng/mL | IL-1β (single replicates, compound 50 μM, LPS-primed BMDCs): 8.679 ng/mL and 9.014 ng/mL and 9.589 ng/mL and 8.363 ng/mL and 10.000 ng/mL and 9.819 ng/mL
